Assay results taken from patent publication EP0934933A1, “Phthalazinones” (Byk Gulden Lomberg Chemische Fabrik GmbH, priority 1998, dated 1999).

Tested on: PDE4
Assay: Inhibition of PDE 4 activity (method of Bauer and Schwabe, adapted to microtitre plates)
Format: biochemical
Settings: measured as -logIC50 (mol/l)

Question: Which “-logIC50” value does the source give for `COc1ccc(-c2nn(CC(=O)c3ccccc3)c(=O)c3ccccc23)cc1OC(F)F` [Compound 5, 4-(3-Difluoromethoxy-4-methoxyphenyl)-2-(2-phenyl-2-oxoethyl)-2H-phthalazin-1-one] here?
Answer: Its value is 7.14.

Question: With `CCOc1cc(-c2nn(CC(=O)c3ccccc3)c(=O)c3ccccc23)ccc1OC` [Compound 3, 4-(3-Ethoxy-4-methoxyphenyl)-2-(2-phenyl-2-oxoethyl)-2H-phthalazin-1-one] as the molecule, how does the “-logIC50” value read?
Answer: The value was 7.28.

Question: How did the “-logIC50” value turn out when `COc1ccc(OC)c(C(=O)Cn2nc(-c3ccc(OC)c(OC)c3)c3ccccc3c2=O)c1` [Compound 10, 4-(3,4-Dimethoxyphenyl)-2-[2-(2,5-dimethoxyphenyl)-2-oxoethyl]-2H-phthalazin-1-one] was run?
Answer: Its value is 6.99.

Question: With `COc1ccc(-c2nn(CC(=O)c3cc(Cl)c(N)c(Cl)c3)c(=O)c3ccccc23)cc1OC` [Compound 12, 4-(3,4-Dimethoxyphenyl)-2-[2-(4-amino-3,5-dichlorophenyl)-2-oxoethyl]-2H-phthalazin-1-one] as the molecule, how does the “-logIC50” value read?
Answer: The value was 6.85.

Question: How did the “-logIC50” value turn out when `COc1ccc(-c2nn(CC(=O)c3ccccc3)c(=O)c3ccccc23)cc1OC1CCCC1` [Compound 4, 4-(3-Cyclopentyloxy-4-methoxyphenyl)-2-(2-phenyl-2-oxoethyl)-2H-phthalazin-1-one] was run?
Answer: The value was 7.09.

Question: `CCOc1ccc(-c2nn(CC(=O)c3ccccc3)c(=O)c3ccccc23)cc1OCC` [Compound 2, 2-(2-Phenyl-2-oxoethyl)-4-(3,4-diethoxyphenyl)-2H-phthalazin-1-one] was tested. Which “-logIC50” value did it give?
Answer: The value was 7.01.

Question: `COc1ccc(-c2nn(CC(=O)c3ccccc3OC)c(=O)c3ccccc23)cc1OC` [Compound 7, 4-(3,4-Dimethoxyphenyl)-2-[2-(2-methoxyphenyl)-2-oxoethyl]-2H-phthalazin-1-one] was tested. Which “-logIC50” value did it give?
Answer: Its value is 7.52.
